Converted amounts (≈) assume the structure as drawn.
Experiments:
Type in all cases: cell-based, Escherichia coli
[1] = system: EKO-35-Pore strains with integrated AcrB, AcrEF, AcrD, MdtEF with pGDP2:emrE or empty pGDP-2; assay: Efflux pump interplay MIC profiling (pGDP2:emrE), porinated; conditions: Pore +
Text: This plasmid enables single-copy genomic integration of a selected gene through integration into the nonessential araC gene within the arabinose operon (Cox, G. et al., 2022). All E. coli genes were amplified from E. coli BW25113 genomic DNA, and mexCD was amplified from P. aeruginosa PAO1, using a high-fidelity polymerase, followed by ligation into pINT2. Successful clones were verified using PCR (Primers: pLac-Fwd/pINT-Rev, Table 4) and confirmed via Sanger sequencing at The Centre for Applied Genomics (TCAG) (The Hospital for Sick Children) and the AAC (University of Guelph). For the interplay studies, this process was repeated using the pGDP2 plasmid (Cox, G. et al., 2022).
To enable comparison between efflux production in different genetic backgrounds, each efflux pump-encoding gene was also integrated into the genome of the wild-type BW25113 strain, the single gene deletion mutant from the Keio Collection, and EKO-35. Strains of interest were propagated on LB agar at 37° C. Cell inoculum was prepared using the colony resuspension method and applied to a 96-well well plate (VWR) in technical duplicate, and the minimum inhibitory concentrations were determined according to Clinical & Laboratory Standards Institute (CLSI) protocols in MHB II (Patel J. B. et al, 2015). The plates were incubated for 18 h (Multitron Shaker, Infors HT) at 37° C. with aeration at 900 rpm. The plates were equilibrated to room temperature before the OD600 nm was measured using a BioTek Synergy H1 microplate reader. For interplay profiling, blank subtracted OD600 nm values >0.1 were considered to represent growth.
To investigate, the EKO-35-Pore strains were profiled using the same approach.

[2] = system: EKO-35 strains with integrated RND tripartite efflux pumps (AcrB, AcrEF, AcrD, and MdtEF) with pGDP2:emrE or empty pGDP-2; assay: Efflux pump interplay MIC profiling (pGDP2:emrE); conditions: Pore −
[3] = system: EKO-35 porinated strain expressing acrF (AcrEF); assay: Checkerboard synergy (FICI), porinated strain
How it was run: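 Interaction of PAβN or NMP with antibiotics is scored as FICI = CA/MICA + CB/MICB, from MICs (no growth, OD600) in MHB II checkerboard microdilution following CLSI. Solvent controls accompany every plate.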

[4] = strain EKO-35 acrEF Pore, NMP + antibiotic

SMILES	MIC ([1]; strain EKO-35) [µg/mL]	Fold Change from EKO-35 ([1]; strain EKO-35 pEmrE)	Fold Change from EKO-35 ([1]; strain acrB pEmrE)	MIC ([1]; strain acrB pEmrE) [µg/mL]	Fold Change from EKO-35 ([1]; strain acrB)	MIC ([1]; strain acrB) [µg/mL]	Fold Change from EKO-35 ([1]; strain acrD pEmrE)	Fold Change from EKO-35 ([1]; strain acrD)	Fold Change from EKO-35 ([1]; strain acrEF pEmrE)	Fold Change from EKO-35 ([1]; strain acrEF)	Fold Change from EKO-35 ([1]; strain mdtEF pEmrE)	Fold Change from EKO-35 ([1]; strain mdtEF)	MIC ([2]; strain EKO-35) [µg/mL]	Fold Change from EKO-35 ([2]; strain EKO-35 pEmrE)	MIC ([2]; strain EKO-35 pEmrE) [µg/mL]	Fold Change from EKO-35 ([2]; strain acrB pEmrE)	MIC ([2]; strain acrB pEmrE) [µg/mL]	Fold Change from EKO-35 ([2]; strain acrB)	MIC ([2]; strain acrB) [µg/mL]	Fold Change from EKO-35 ([2]; strain acrD pEmrE)	also measured
CN(C)c1ccc(O)c2c1C[C@H]1C[C@H]3[C@H](N(C)C)C(O)=C(C(N)=O)C(=O)[C@@]3(O)C(O)=C1C2=O [minocycline]	0.63	1	4	2.5	4	2.5	2	2	2	2	2	2	1.25 (≈ 2.73 µM)	1	1.25 (≈ 2.73 µM)	4	5 (≈ 10.9 µM)	4	5 (≈ 10.9 µM)	2	MIC ([1]; strain EKO-35 pEmrE): 0.63 µg/mL; MIC ([2]; strain acrD pEmrE): 2.5 µg/mL (≈ 5.46 µM); Fold Change from EKO-35 ([2]; strain acrD): 2; MIC ([2]; strain acrD): 2.5 µg/mL (≈ 5.46 µM); Fold Change from EKO-35 ([2]; strain acrEF pEmrE): 4; MIC ([2]; strain acrEF pEmrE): 5 µg/mL (≈ 10.9 µM); Fold Change from EKO-35 ([2]; strain acrEF): 2; MIC ([2]; strain acrEF): 2.5 µg/mL (≈ 5.46 µM); Fold Change from EKO-35 ([2]; strain mdtEF pEmrE): 2; MIC ([2]; strain mdtEF pEmrE): 2.5 µg/mL (≈ 5.46 µM); Fold Change from EKO-35 ([2]; strain mdtEF): 2; MIC ([2]; strain mdtEF): 2.5 µg/mL (≈ 5.46 µM)
CC[n+]1c(-c2ccccc2)c2cc(N)ccc2c2ccc(N)cc21 [ethidium bromide]	0.061	4	256	15.6	64	3.91	8	1	64	16	32	8	0.122	4	0.488	256	31.2	64	7.81	16	MIC ([1]; strain acrD): 0.061 µg/mL; MIC ([1]; strain acrEF pEmrE): 3.91 µg/mL; MIC ([1]; strain mdtEF pEmrE): 1.95 µg/mL; MIC ([2]; strain acrD pEmrE): 1.95 µg/mL; Fold Change from EKO-35 ([2]; strain acrD): 2; MIC ([2]; strain acrD): 0.244 µg/mL; Fold Change from EKO-35 ([2]; strain acrEF pEmrE): 64; MIC ([2]; strain acrEF pEmrE): 7.81 µg/mL; Fold Change from EKO-35 ([2]; strain acrEF): 16; MIC ([2]; strain acrEF): 1.95 µg/mL; Fold Change from EKO-35 ([2]; strain mdtEF pEmrE): 32; MIC ([2]; strain mdtEF pEmrE): 3.91 µg/mL; Fold Change from EKO-35 ([2]; strain mdtEF): 8; MIC ([2]; strain mdtEF): 0.977 µg/mL; FICI ([3]; EKO-35 acrEF Pore, NMP + antibiotic): 0.500; Effect [3, 4]: Synergistic (Synergy (FICI ≤0.5)); FICI [3, 4]: 0.500; MICb Alone ([3]; strain EKO-35 acrEF Pore, antibiotic alone): 2 µg/mL; MICb Combined ([3]; strain EKO-35 acrEF Pore, antibiotic in combination with NMP): 0.5 µg/mL

— patent publication US20230407243A1, “GENETIC PLATFORM TO INVESTIGATE THE FUNCTIONS OF BACTERIAL DRUG EFFLUX PUMPS” (priority 2022, published 2023)
